# Experimental data: patent publication US11541028B2, “Peptide pharmaceuticals for treatment of NASH and other disorders” (Mederis Diabetes LLC, priority 2018, dated 2023)
# Assays:
# GLP-1 R = target: T1, GLP-1 R (Mus musculus, UniProt O35659); assay: Cerep cellular assay, stimulation of cAMP levels, GLP-1 (murine cell line); assay type: cell-based; set-up: key: §means superagonist; n.c. means EC50 not calculable; conditions: for EC50 GLP-1 R (nM): n.c. = EC50 not calculable
# T1 construct: GLP-1 (murine cell line) cellular assays
# T1 sequence (O35659 22-463): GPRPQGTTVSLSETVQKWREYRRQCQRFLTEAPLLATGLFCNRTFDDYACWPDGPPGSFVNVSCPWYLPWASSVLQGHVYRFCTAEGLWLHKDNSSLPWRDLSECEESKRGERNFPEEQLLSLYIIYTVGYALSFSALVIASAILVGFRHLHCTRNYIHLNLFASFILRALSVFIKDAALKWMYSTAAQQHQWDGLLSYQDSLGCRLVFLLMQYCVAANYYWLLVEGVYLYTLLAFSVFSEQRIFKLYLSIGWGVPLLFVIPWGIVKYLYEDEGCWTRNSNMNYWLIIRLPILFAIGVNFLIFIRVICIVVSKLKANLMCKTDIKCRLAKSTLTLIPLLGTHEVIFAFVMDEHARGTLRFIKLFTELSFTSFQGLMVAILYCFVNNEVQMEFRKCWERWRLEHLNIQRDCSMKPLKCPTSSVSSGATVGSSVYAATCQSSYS
# Description: Compounds were weighed precisely in an amount of about 1 mg and assayed in standard cellular assays (Cerep SA). The readout was the amount of cAMP generated in the cells treated with the test compounds, in either agonist or antagonist mode. […] The assays are described in Chicchi et al., J. Biol. Chem., 272:7765-7769 (1997) and Runge et al., Br. J. Pharmacol., 138:787-794 (2003).
# DIO-NASH mice = assay: Biopsy-proven DIO-NASH mouse model; assay type: in vivo; conditions: for hepatocyte ballooning score (0-2), pre-study to post-study biopsy: animals that initially exhibited ballooning
# Description: All mice entering the study were stratified based on liver pre-biopsy at week −3. Only mice with a fibrosis score ≥1 and a steatosis score ≥2 were included in the study. The stratified mice were randomized into treatment groups based on liver collagen type 1 alpha 1 (collal) quantification at week −3.
# Body weight was measured daily for the entire study period. Food intake was measured daily for the first 14 days, and then weekly until study end. EchoMRI whole-body scanning was performed in week 11. At study end were measured plasma levels of alanine transaminase (ALT), aspartate transaminase (AST), γ-glutamyltransferase (GGT), triglycerides (TG) and total cholesterol (TC), liver levels of TG, TC, col1α1 and galectin-3, the expression levels of a wide variety of mRNAs in the liver, and the liver weight, and were performed liver biopsy/necropsy to assess steatosis, inflammation, ballooning and fibrosis of the liver.
# For blood and plasma assays, blood samples were collected in heparinized tubes and plasma was separated and stored at −80° C. until analysis. ALT, AST, GGT, TG and TC levels were measured using commercial kits (Roche Diagnostics, Germany) and the Cobas™ C-501 autoanalyzer according to the manufacturer's instructions.
# For liver tissue assays, the triglycerides and cholesterol content in the liver was measured using the Triglyceride and Cholesterol reagents (Cat. No. 22-045-795 and Cat. No. 22-045-780, respectively, Roche Diagnostics, Germany) and the Cobas™ C-501 autoanalyzer. Homogenized liver tissue was heated to 80-100° C. twice and centrifuged in a microcentrifuge, and the triglycerides and cholesterol content in the resulting supernatant was measured.
# The body composition of the mice was assessed by an EchoMRI 3-1 body composition analyzer (EchoMRI, U.S.). Unanesthetised mice were placed in a plastic tube inside the MRI scanner for about 80 seconds. The body composition was expressed as fat tissue mass, fat-free tissue mass (lean tissue mass) and water.
# For liver biopsy, mice were anesthetized by inhalation of isoflurane (2-3%). A small abdominal incision was made in the midline, and the left lateral lobe of the liver was exposed. A cone-shaped wedge of liver tissue (about 50 mg) was excised from the distal portion of the lobe and fixated in 10% neutral-buffered formalin (4% formaldehyde) for histology. The cut surface of the liver was instantly electro-coagulated using bipolar coagulation (ERBE VIO 100 electrosurgical unit). After pre-biopsy, the liver was returned to the abdominal cavity, the abdominal wall was sutured, and the skin was closed with staples. For post-operative recovery, the mice were administered carprofen (5 mg/kg) subcutaneously on the day of operation and on days 1 and 2 post-operation.
# For histological staining, in brief, slides with paraffin-embedded sections were de-paraffinated in xylene and then rehydrated in a series of graded ethanol. For hematoxylin and eosin (H&E) staining, the slides were incubated in Mayer's Hematoxylin (Dako), washed in tap water, stained in Eosin Y solution (Sigma-Aldrich), hydrated, mounted with Pertex and then allowed to dry before scanning. For picrosirius red (PSR) staining, the slides were incubated in Weigert's iron hematoxylin (Sigma-Aldrich), washed in tap water, stained in picrosirius red (Sigma-Aldrich) and then washed twice in acidified water. Excess water was removed by shaking the slides, and the slides were dehydrated in three changes of 99% ethanol, cleared in xylene, mounted with Pertex and then allowed to dry before scanning.
# For collagen type 1 alpha 1 (collal) and galectin-3 (GAL3) immunohistochemical (IHC) staining, after antigen retrieval and blocking of endogenous peroxidase activity, slides were incubated with the primary antibody (Cat. No. 1310-01 from Southern Biotech for col1α1, or Cat. No. 125402 from Biolegend for galectin-3). […]
# human GLP-1 receptor = target: T2, human GLP-1 receptor (Homo sapiens, UniProt P43220); assay: DiscoveRx LeadHunter cellular assay, cAMP stimulation, GLP-1 receptor in CHO cells; assay type: cell-based; conditions: human GLP-1 receptor in CHO cells (DiscoveRx); read-out: EC50 cAMP GLP-1 R
# T2 construct: host or cells: CHO cells
# Description: (§4801) A further series of cellular assays was carried out with standard cellular assays (DiscoveRx, LeadHunter assays) using readout of cAMP stimulation or arrestin activation. Compounds were weighed precisely in an amount of about 1 mg and shipped to DiscoveRx for dilution and assay.
# DIO C57BL/6J mice = assay: Activity in diet-induced obese (DIO) mice; assay type: in vivo
# Description: Fifty diet-induced obese (DIO) C57BL/6J male mice (JAX Labs) were received at 6 wks of age. The mice were ear notched for identification and housed individually in positively ventilated polycarbonate cages with HEPA-filtered air at a density of […]. The animal room was lit entirely with artificial fluorescent lighting, with a controlled 12 hr light/dark cycle. The normal temperature and relative humidity ranges in the animal rooms were 22±4° C. and 50±15%, respectively. Filtered tap water, acidified to a pH of 2.8-3.1, and a high-fat diet (Research Diets D12492, 60 kcal %) were provided ad libitum.
# Following a 2 week acclimation, the 50 mice were randomized into groups (n=10): Group 1: treated with vehicle; Group 2: low-dose EU-A994; Group 3: high-dose […]; Group 4: low-dose EU-A1024; and Group 5: high-dose EU-A1024. Mice were dosed subcutaneously on days 1 (at 0 and 7 hr), 3, 6, 9, 12, 15, 18, 21 and 24. Body weight and cage-side observations were recorded daily. Food and water intake was recorded weekly. Mice underwent NMR measurements for determination of whole-body fat and lean composition on days 1 (pre-dose) and 26. On day 26, mice were fasted overnight for an oral glucose tolerance test. Next day, the first blood sample was collected via tail nick (t=0). Mice were then administered a bolus of 1.0 g/kg glucose. Blood samples were obtained via tail nick at 0, 15, 30, 60, 90 and 120 min after glucose dosing, and plasma glucose was immediately determined using a glucometer.
# Mice were sacrificed on day 28. Terminal blood was processed to serum/plasma, and aliquots were sent for analysis of glucose, insulin and lipid profile. Body composition was determined by NMR.
# human glucagon receptor = target: T3, human glucagon receptor (Homo sapiens, UniProt P47871); assay: DiscoveRx LeadHunter cellular assay, cAMP stimulation, glucagon receptor in CHO cells; assay type: cell-based
# T3 construct: host or cells: CHO cells
# Description: as §4801
# [1] = 12 weeks QD (SP-1373 5/10 nmole/kg SC; semaglutide 10 nmole/kg SC; elafibranor PO)
# [2] = 12 weeks QD (SP-1373 5/10 nmole/kg SC; semaglutide 10 nmole/kg SC; elafibranor 78 mole/kg PO)
# [3] = days 1 (pre-dose) and 26 (FIG. 11)
# [4] = sc on days 1 (0 and 7 hr), 3, 6, 9, 12, 15, 18, 21 and 24
# T3 sequence (P47871 26-477): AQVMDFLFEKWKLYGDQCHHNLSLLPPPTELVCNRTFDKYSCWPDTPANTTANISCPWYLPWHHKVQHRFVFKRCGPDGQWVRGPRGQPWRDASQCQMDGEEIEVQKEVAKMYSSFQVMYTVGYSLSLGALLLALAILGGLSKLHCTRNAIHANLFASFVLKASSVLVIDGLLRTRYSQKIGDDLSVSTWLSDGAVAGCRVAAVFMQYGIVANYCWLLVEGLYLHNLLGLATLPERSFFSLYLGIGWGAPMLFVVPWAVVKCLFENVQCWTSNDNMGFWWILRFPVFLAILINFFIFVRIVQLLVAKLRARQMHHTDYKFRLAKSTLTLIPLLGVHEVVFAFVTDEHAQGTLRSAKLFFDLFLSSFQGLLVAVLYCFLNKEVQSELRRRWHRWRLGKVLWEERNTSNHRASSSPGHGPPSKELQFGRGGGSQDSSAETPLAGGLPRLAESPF
# T2 sequence (P43220 24-463): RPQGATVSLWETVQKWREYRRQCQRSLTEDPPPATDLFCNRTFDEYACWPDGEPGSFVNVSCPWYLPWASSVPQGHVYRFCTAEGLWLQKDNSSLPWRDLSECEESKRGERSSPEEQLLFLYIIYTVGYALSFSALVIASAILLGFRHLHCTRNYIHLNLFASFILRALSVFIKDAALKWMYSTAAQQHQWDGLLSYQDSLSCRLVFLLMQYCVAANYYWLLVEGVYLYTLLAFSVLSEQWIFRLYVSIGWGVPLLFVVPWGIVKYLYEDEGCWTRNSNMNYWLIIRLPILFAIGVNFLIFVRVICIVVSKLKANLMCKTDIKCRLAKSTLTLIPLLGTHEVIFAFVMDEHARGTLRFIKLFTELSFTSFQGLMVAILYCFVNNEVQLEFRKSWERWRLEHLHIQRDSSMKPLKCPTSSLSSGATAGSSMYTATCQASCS
compound,measurement,setting,value
CCCCCCCCCCCCO[C@@H]1O[C@H](C(=O)NCCCC[C@H](NC(=O)[C@H](CO)NC(=O)[C@H](CC(=O)O)NC(=O)[C@H](CC(C)C)NC(=O)[C@H](Cc2ccc(O)cc2)NC(=O)[C@H](CCCCN)NC(=O)[C@H](CO)NC(=O)[C@H](Cc2ccc(O)cc2)NC(=O)[C@H](CC(=O)O)NC(=O)[C@H](CO)NC(=O)[C@@H](NC(=O)[C@H](Cc2ccccc2)NC(=O)[C@@H](NC(=O)CNC(=O)[C@H](CCC(N)=O)NC(=O)C(C)(C)NC(=O)[C@@H](N)Cc2c[nH]cn2)[C@@H](C)O)[C@@H](C)O)C(=O)NC(C)(C)C(N)=O)[C@@H](O)[C@H](O)[C@H]1O [EU-A527],EC50 GLP-1 R (nM),GLP-1 R,n.c.
semaglutide,body weight,DIO-NASH mice; [1],less body weight decrease
same,"hepatocyte ballooning score (0-2), pre-study to post-study biopsy",DIO-NASH mice; [1],showed no ballooning
same,"liver steatosis, histology with hematoxylin and eosin stain",DIO-NASH mice; semaglutide 10 nmole/kg SC QD 12 weeks,moderate decrease in hepatosteatosis
CCCCCCCCCCCCCCO[C@@H]1O[C@H](C(=O)NCCCC[C@H](NC(=O)[C@H](CCCNC(=N)N)NC(=O)[C@H](CO)NC(=O)[C@H](CC(=O)O)NC(=O)[C@H](CC(C)C)NC(=O)[C@H](Cc2ccc(O)cc2)NC(=O)[C@H](CCCCN)NC(=O)[C@H](CO)NC(=O)[C@H](Cc2ccc(O)cc2)NC(=O)[C@H](CC(=O)O)NC(=O)[C@H](CO)NC(=O)[C@@H](NC(=O)[C@H](Cc2ccccc2)NC(=O)[C@@H](NC(=O)CNC(=O)[C@H](CCC(N)=O)NC(=O)C(C)(C)NC(=O)[C@@H](N)Cc2c[nH]cn2)[C@@H](C)O)[C@@H](C)O)C(=O)NC(C)(C)C(N)=O)[C@@H](O)[C@H](O)[C@H]1O [EU-A535],efficacy class at GLP-1 R (mark in EC50 cell),GLP-1 R,§4800
CSc1ccc(C(=O)/C=C/c2cc(C)c(OC(C)(C)C(=O)O)c(C)c2)cc1 [elafibranor],"liver fibrosis score (0-4), picrosirius red",DIO-NASH mice; 12 weeks QD (SP-1373 5/10 nmole/kg SC; elafibranor PO),reduced liver fibrosis in the majority of animals
same,liver triglycerides (TG) level,DIO-NASH mice; [2],little or no effect
same,liver weight,DIO-NASH mice; [2],increased liver weight
same,total liver collagen type 1 alpha 1 staining (measure of liver fibrosis),DIO-NASH mice; [2],modest effect
same,total liver galectin-3 staining (biomarker for liver inflammation and fibrosis),DIO-NASH mice; [2],essentially no effect
same,body weight,DIO-NASH mice; [1],less body weight decrease
same,liver total cholesterol (TC) level,DIO-NASH mice; [1],little or no effect
same,"hepatocyte ballooning score (0-2), pre-study to post-study biopsy",DIO-NASH mice; [1],showed no ballooning
CCCCCCCCCCCCO[C@@H]1O[C@H](C(=O)NCCCC[C@H](NC(=O)[C@H](CO)NC(=O)[C@H](CC(=O)O)NC(=O)[C@H](CC(C)C)NC(=O)[C@H](Cc2ccc(O)cc2)NC(=O)[C@H](CCCCN)NC(=O)[C@H](CO)NC(=O)[C@H](Cc2ccc(O)cc2)NC(=O)[C@H](CC(=O)O)NC(=O)[C@H](CO)NC(=O)[C@@H](NC(=O)[C@H](Cc2ccccc2)NC(=O)[C@@H](NC(=O)CNC(=O)[C@H](CCC(N)=O)NC(=O)C(C)(C)NC(=O)[C@@H](N)Cc2c[nH]cn2)[C@@H](C)O)[C@@H](C)O)C(=O)N[C@@H](CCCNC(=N)N)C(=O)NC(C)(C)C(N)=O)[C@@H](O)[C@H](O)[C@H]1O [EU-A529],EC50 GLP-1 R (nM),GLP-1 R,n.c.
CCCCCCCCCCCCCCO[C@@H]1O[C@H](CO[C@H]2O[C@H](C(=O)NCCCC[C@H](NC(=O)[C@@H](NC(=O)[C@H](Cc3ccccc3)NC(=O)[C@H](CCC(=O)O)NC(=O)[C@@H]3CCCCNC(=O)CC[C@H](NC(=O)[C@H](CC(=O)O)NC(=O)[C@H](CC(C)C)NC(=O)[C@H](Cc4ccc(O)cc4)NC(=O)[C@H](CCCCN)NC(=O)[C@H](CO)NC(=O)[C@H](Cc4ccc(O)cc4)NC(=O)[C@H](CC(=O)O)NC(=O)[C@H](CO)NC(=O)[C@@H](NC(=O)[C@H](Cc4ccccc4)NC(=O)[C@@H](NC(=O)CNC(=O)[C@H](CCC(N)=O)NC(=O)C(C)(C)NC(=O)[C@@H](N)Cc4c[nH]cn4)[C@@H](C)O)[C@@H](C)O)C(=O)N[C@@H](CCC(N)=O)C(=O)N[C@@H](C)C(=O)N[C@@H](C)C(=O)N3)[C@@H](C)CC)C(=O)N[C@@H](Cc3c[nH]c4ccccc34)C(=O)N[C@@H](CC(C)C)C(=O)N[C@@H](CC(C)C)C(=O)N[C@@H](CCC(N)=O)C(=O)N[C@H](C(N)=O)[C@@H](C)O)[C@H](O)[C@H](O)[C@H]2O)[C@@H](O)[C@H](O)[C@H]1O [EU-A1024],EC50,human GLP-1 receptor,0.005 nM
same,fat mass (NMR),DIO C57BL/6J mice; [3],reduced fat mass
same,lean mass (NMR),DIO C57BL/6J mice; [3],little effect on lean mass
same,basal insulin secretion,DIO C57BL/6J mice; [4],reduced basal insulin secretion
same,glucose excursion in the oral glucose tolerance test (OGTT),DIO C57BL/6J mice; [4],reduced glucose excursion
same,glucose-dependent insulin secretion,DIO C57BL/6J mice; [4],increased glucose-dependent insulin secretion
same,weight gain,"DIO C57BL/6J mice; sc on days 1 (0 and 7 hr), 3, 6, 9, 12, 15, 18, 21 and 24 (FIG. 10)",reduced weight gain
same,EC50,human glucagon receptor,0.035 nM
